This note sets out measurements from ChEMBL document CHEMBL5291721, “A preclinical secondary pharmacology resource illuminates target-adverse drug reaction associations of marketed drugs” (Nat Commun, 2023).

The target in assay [1] is T1, Alpha-1A adrenergic receptor (Homo sapiens, UniProt P35348).
T1 sequence (P35348 whole entry): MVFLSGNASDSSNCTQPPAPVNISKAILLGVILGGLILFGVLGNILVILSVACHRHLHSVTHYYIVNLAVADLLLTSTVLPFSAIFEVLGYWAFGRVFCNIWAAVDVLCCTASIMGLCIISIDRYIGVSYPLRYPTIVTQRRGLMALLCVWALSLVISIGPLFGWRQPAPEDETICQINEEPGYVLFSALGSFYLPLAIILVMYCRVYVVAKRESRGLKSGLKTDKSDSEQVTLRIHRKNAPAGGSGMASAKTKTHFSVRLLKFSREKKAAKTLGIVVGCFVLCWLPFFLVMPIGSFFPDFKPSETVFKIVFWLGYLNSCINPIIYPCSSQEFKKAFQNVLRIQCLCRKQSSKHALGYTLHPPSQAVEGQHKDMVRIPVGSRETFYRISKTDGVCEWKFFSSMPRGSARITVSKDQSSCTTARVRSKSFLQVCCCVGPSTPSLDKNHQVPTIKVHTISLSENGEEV

Assay [2] concerns the target T2, Alpha-2A adrenergic receptor (Homo sapiens, UniProt P08913).
T2 sequence (P08913 whole entry): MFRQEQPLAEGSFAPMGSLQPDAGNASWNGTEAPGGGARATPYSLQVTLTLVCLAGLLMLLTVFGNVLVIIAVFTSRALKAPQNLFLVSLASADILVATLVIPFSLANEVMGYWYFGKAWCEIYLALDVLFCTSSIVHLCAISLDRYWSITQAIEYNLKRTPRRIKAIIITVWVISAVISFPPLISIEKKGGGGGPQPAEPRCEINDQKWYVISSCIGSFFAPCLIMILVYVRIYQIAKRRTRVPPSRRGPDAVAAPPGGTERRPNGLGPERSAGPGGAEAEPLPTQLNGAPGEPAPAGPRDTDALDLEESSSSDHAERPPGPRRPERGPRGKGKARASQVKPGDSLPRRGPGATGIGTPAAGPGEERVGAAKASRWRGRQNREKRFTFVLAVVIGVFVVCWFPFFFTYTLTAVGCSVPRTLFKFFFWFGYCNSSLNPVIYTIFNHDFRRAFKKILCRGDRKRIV
The assay is classed as functional, cell-based.

Assay [3] addresses Voltage-dependent N-type calcium channel subunit alpha-1B (Rattus norvegicus, UniProt Q02294). The class given is functional.
The target in assay [4] is T3, Corticotropin-releasing factor receptor 2 (Homo sapiens, UniProt Q13324).
T3 sequence (Q13324 whole entry): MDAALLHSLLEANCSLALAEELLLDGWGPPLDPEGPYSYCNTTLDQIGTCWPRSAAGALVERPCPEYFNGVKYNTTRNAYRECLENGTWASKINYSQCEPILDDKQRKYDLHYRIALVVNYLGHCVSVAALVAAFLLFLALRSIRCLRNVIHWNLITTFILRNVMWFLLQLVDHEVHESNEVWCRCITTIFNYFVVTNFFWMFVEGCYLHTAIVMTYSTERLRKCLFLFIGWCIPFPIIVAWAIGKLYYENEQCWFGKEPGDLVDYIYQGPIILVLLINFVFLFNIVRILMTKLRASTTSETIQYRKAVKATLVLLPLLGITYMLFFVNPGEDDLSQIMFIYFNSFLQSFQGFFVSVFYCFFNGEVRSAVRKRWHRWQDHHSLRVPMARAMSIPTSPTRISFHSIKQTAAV

Assay [5] deals with Growth hormone secretagogue receptor type 1 (Homo sapiens, UniProt Q92847).
Assay [6] addresses T4, 5-hydroxytryptamine receptor 2B (Homo sapiens, UniProt P41595). The assay is classed as functional, cell-based.
Assay [7] concerns the target T4, 5-hydroxytryptamine receptor 2B.
For assay [8], the target named is T5, Progesterone receptor (Homo sapiens, UniProt P06401).
T5 sequence (P06401 whole entry): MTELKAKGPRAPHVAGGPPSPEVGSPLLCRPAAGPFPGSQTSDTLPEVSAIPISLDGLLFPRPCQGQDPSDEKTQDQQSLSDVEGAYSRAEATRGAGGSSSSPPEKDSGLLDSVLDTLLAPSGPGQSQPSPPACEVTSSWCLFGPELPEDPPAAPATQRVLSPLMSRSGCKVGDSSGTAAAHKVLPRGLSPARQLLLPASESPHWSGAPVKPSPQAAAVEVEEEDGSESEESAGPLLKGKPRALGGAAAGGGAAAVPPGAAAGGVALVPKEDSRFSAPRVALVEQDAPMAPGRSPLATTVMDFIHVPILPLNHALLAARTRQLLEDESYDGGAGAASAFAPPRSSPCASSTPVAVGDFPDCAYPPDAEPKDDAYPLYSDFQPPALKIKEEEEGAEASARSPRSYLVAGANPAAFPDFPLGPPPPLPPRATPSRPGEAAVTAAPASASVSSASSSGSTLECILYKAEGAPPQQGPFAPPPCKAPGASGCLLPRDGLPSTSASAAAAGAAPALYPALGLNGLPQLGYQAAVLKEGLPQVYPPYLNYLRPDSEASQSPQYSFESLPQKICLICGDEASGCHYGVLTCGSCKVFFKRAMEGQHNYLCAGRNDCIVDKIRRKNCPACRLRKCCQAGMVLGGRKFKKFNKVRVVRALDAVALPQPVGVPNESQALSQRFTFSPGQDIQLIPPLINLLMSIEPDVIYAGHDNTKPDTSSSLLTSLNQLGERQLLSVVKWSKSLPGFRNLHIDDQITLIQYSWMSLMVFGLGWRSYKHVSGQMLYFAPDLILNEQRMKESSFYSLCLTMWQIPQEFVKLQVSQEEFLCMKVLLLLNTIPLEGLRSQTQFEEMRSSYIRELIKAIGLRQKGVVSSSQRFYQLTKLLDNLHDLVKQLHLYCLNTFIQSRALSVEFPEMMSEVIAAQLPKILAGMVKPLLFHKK
The class given is functional.

The target of assay [9] is T5, Progesterone receptor. The class given is functional. The source holds these as a separate data set.
Assay [10] has as its target T5, Progesterone receptor.
The target in assay [11] is 5-hydroxytryptamine receptor 2A (Homo sapiens, UniProt P28223). The assay is classed as functional, cell-based.
Further: assay procedure not described here.

T4 sequence (P41595 whole entry): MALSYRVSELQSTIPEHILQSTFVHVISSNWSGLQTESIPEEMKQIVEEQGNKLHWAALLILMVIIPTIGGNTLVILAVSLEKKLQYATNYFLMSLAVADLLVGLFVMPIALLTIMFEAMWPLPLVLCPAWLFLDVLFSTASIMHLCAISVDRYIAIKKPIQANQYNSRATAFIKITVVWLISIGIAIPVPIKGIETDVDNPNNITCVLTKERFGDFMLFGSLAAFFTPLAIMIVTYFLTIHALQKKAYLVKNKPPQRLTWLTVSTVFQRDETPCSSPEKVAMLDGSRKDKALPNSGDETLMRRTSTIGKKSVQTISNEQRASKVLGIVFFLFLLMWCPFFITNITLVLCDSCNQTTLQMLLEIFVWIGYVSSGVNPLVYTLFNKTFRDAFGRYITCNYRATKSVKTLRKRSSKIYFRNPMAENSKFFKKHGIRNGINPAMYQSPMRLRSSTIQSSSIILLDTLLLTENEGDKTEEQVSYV
Chain of Growth hormone secretagogue receptor type 1 (Q92847 whole entry): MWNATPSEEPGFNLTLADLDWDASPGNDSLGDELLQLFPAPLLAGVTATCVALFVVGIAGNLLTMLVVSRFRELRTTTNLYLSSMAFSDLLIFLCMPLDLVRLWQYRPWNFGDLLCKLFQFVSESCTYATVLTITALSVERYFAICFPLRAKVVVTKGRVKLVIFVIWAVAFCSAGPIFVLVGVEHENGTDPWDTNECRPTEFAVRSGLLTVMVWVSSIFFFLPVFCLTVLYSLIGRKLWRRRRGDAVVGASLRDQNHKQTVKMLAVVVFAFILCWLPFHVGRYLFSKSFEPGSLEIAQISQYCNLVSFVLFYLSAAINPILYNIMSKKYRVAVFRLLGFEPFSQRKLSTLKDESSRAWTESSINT
Chain of Voltage-dependent N-type calcium channel subunit alpha-1B (Q02294 whole entry): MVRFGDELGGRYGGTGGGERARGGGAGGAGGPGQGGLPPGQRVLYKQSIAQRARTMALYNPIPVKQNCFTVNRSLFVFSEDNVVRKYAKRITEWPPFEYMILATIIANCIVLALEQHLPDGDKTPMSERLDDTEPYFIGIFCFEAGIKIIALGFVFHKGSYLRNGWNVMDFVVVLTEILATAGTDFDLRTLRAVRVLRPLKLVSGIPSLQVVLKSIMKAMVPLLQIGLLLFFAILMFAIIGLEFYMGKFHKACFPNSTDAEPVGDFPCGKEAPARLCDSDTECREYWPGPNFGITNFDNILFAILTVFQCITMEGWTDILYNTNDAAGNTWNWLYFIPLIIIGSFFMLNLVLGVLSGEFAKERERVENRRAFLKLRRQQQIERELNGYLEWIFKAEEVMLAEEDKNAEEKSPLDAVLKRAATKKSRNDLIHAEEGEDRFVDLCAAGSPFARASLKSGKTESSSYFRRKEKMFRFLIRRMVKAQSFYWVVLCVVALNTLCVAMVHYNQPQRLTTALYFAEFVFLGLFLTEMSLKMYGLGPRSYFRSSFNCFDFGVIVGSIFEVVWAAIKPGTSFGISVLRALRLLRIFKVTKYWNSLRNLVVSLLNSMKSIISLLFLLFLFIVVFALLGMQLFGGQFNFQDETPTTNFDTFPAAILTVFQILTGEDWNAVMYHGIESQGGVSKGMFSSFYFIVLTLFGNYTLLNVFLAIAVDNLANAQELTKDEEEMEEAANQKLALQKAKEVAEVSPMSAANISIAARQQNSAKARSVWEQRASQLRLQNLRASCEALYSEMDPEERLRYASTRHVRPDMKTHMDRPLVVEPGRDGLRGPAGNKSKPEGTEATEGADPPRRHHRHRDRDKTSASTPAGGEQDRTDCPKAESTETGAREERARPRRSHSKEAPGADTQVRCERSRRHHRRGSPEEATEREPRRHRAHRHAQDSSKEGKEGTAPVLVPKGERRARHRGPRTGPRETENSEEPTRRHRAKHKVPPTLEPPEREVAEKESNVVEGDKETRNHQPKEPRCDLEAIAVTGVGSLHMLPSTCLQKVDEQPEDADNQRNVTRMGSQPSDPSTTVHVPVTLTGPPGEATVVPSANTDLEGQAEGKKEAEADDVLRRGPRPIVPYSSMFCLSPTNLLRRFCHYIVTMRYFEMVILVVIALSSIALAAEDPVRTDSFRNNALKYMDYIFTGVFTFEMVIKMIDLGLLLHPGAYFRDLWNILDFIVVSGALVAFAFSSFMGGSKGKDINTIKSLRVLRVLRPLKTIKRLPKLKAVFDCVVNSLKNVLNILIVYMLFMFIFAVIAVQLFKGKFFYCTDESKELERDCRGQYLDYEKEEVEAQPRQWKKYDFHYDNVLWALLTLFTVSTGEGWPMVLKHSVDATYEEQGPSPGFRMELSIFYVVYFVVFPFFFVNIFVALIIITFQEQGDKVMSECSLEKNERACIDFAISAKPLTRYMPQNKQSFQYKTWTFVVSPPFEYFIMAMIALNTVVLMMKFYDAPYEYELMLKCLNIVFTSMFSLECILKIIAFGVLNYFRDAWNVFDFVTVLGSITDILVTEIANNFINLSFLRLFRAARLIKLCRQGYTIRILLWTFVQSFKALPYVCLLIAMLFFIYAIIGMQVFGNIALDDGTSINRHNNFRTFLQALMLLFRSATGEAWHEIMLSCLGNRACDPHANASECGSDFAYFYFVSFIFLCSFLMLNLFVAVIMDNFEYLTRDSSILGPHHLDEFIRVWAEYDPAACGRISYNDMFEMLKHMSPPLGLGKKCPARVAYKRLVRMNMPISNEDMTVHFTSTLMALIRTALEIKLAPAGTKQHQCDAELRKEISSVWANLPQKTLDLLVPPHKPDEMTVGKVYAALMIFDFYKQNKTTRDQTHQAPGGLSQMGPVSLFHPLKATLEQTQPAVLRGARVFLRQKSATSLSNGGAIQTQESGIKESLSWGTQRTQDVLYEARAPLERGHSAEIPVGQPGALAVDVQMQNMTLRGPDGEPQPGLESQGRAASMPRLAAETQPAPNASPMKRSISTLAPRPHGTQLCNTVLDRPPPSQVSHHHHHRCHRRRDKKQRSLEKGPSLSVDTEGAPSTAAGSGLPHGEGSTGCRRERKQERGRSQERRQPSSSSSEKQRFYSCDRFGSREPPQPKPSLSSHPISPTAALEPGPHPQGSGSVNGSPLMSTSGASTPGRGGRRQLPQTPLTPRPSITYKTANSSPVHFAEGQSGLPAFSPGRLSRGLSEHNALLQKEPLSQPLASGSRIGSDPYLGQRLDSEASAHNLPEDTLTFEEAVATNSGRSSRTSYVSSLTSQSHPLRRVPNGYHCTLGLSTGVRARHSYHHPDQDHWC
Chain of 5-hydroxytryptamine receptor 2A (P28223 whole entry): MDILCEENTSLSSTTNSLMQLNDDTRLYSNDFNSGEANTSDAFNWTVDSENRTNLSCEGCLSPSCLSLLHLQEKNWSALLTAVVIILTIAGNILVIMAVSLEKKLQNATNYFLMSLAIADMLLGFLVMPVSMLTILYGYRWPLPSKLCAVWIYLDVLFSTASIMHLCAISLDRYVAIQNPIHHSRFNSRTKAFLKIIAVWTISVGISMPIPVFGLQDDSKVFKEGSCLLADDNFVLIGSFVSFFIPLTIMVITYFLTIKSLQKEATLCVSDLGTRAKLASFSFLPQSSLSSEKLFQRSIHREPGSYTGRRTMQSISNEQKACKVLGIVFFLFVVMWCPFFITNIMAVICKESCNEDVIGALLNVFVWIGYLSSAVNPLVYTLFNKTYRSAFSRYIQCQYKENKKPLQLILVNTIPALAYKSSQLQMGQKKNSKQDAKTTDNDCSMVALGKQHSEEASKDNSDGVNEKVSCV

As for `CC1(C)S[C@@H]2[C@H](NC(=O)[C@H](N)c3ccc(O)cc3)C(=O)N2[C@H]1C(=O)O` [AMOXICILLIN], the concentration at half-maximal activity (AC50) is more than 10 µM in assay [1]; more than 30 µM in [2]; more than 10 µM in assay [3]; more than 30 µM in assay [4]; more than 30 µM in assay [5]; more than 30 µM in assay [6]. For the same compound, the AC50 in [7] was more than 10 µM; in [8], more than 30 µM; in assay [9], more than 30 µM; in assay [10], more than 30 µM.
For the compound `COC(=O)[C@H](c1ccccc1Cl)N1CCc2sccc2C1` [CLOPIDOGREL], the half-maximal activity concentration (AC50) in assay [1] is more than 10 µM; in [2] it was more than 30 µM; in assay [3], more than 10 µM; in [4], more than 30 µM; in assay [5], more than 30 µM; in assay [6] it was more than 30 µM. Besides, the half-maximal activity concentration (AC50) in assay [7] was more than 10 µM; in [8], more than 30 µM; in assay [9], more than 30 µM; in assay [10] it was more than 30 µM.
Consider `CCCN(CCC)CCc1cccc2c1CC(=O)N2` [ROPINIROLE], for which the AC50 was more than 10 µM in [1]; more than 30 µM in assay [2]; more than 10 µM in assay [3]; more than 30 µM in assay [4]; more than 30 µM in assay [5]; 7.3 µM in assay [11]. Also, the AC50 in [6] is 2.76 µM; in assay [7], 27 µM; in assay [8] it was more than 30 µM; in assay [9] it was more than 30 µM; in assay [10] it was more than 30 µM.
Turning to `CC1(C)O[C@@H]2[C@@H](CO[C@@]3(COS(N)(=O)=O)OC(C)(C)O[C@@H]23)O1` [TOPIRAMATE], the AC50 is more than 10 µM in [1]; more than 10 µM in assay [2]; more than 10 µM in assay [3]; more than 30 µM in [4]; more than 30 µM in assay [5]; more than 10 µM in assay [6]. For the same compound, the concentration at half-maximal activity (AC50) in assay [7] was more than 10 µM; in assay [10], more than 30 µM.

One may read the AC50 as the concentration giving half of the maximal activity seen.
